Test results from ChEMBL document CHEMBL1151661, “Inhibitory effect of tannins on reverse transcriptase from RNA tumor virus” (J Nat Prod, 1985).
Active and inactive are the calls of the source. The rule behind the calls is not given here.

Experiments:
[1] = test system: Avian myeloblastosis virus; experiment: Inhibition of AMV reverse transcriptase activity assessed as incorporation of dGMP in poly(rC)-oligo(dG) at 0.1 uM; design: scale not given: the % may be the effect or the level left
[2] = test system: Avian myeloblastosis virus; experiment: Inhibition of AMV reverse transcriptase activity assessed as incorporation of dTMP in poly(rA)-oligo(dT) at 100 uM; design: scale not given: the % may be the effect or the level left
[3] = test system: Avian myeloblastosis virus; experiment: Inhibition of AMV reverse transcriptase activity assessed as incorporation of dGMP in poly(rC)-oligo(dG) at 1000 uM; design: scale not given: the % may be the effect or the level left
[4] = test system: Avian myeloblastosis virus; experiment: Inhibition of AMV reverse transcriptase activity assessed as incorporation of dTMP in poly(rA)-oligo(dT) at 1 uM; design: scale not given: the % may be the effect or the level left
[5] = test system: Avian myeloblastosis virus; experiment: Inhibition of AMV reverse transcriptase activity assessed as incorporation of dGMP in poly(rC)-oligo(dG) at 100 uM; design: scale not given: the % may be the effect or the level left
[6] = test system: Avian myeloblastosis virus; experiment: Inhibition of AMV reverse transcriptase activity assessed as incorporation of dTMP in poly(rA)-oligo(dT) at 10 uM; design: scale not given: the % may be the effect or the level left
[7] = test system: Avian myeloblastosis virus; experiment: Inhibition of AMV reverse transcriptase activity assessed as incorporation of dGMP in poly(rC)-oligo(dG) at 10 uM; design: scale not given: the % may be the effect or the level left
[8] = test system: Avian myeloblastosis virus; experiment: Inhibition of AMV reverse transcriptase activity assessed as incorporation of dTMP in poly(rA)-oligo(dT) at 1000 uM; design: scale not given: the % may be the effect or the level left
[9] = test system: Avian myeloblastosis virus; experiment: Inhibition of AMV reverse transcriptase activity assessed as incorporation of dTMP in poly(rA)-oligo(dT) at 0.1 uM; design: scale not given: the % may be the effect or the level left
[10] = test system: Avian myeloblastosis virus; experiment: Inhibition of AMV reverse transcriptase activity assessed as incorporation of dGMP in poly(rC)-oligo(dG) at 1 uM; design: scale not given: the % may be the effect or the level left
[11] = species on record: Bos taurus; experiment: Inhibition of calf thymus DNA polymerase-alpha activity using activated calf thymus DNA at 1000 uM
[12] = test system: Avian myeloblastosis virus; experiment: Inhibition of AMV reverse transcriptase activity assessed as DNA synthesis treated at 100 uM after 5 mins of initiation of DNA synthesis
[13] = species on record: Bos taurus; experiment: Inhibition of calf thymus DNA polymerase-alpha activity using activated calf thymus DNA at 10 uM

SMILES | Activity [1] | Activity [2] | Activity [3] | Activity [4] | Activity [5] | Activity [6] | Activity [7] | Activity [8] | Activity [9] | Activity [10] | Activity [11] | Activity [12] | Activity [13]
O=C(OC[C@H]1O[C@@H](OC(=O)c2cc(O)c(O)c(O)c2)[C@H](OC(=O)c2cc(O)c(O)c(O)c2)[C@@H](OC(=O)c2cc(O)c(O)c(O)c2)[C@@H]1OC(=O)c1cc(O)c(O)c(O)c1)c1cc(O)c(O)c(O)c1 | 80% | 25% | 15% | 39% | 27% | 30% | 44% | 7% | 67% | 62% | – | – | –
O=c1oc2c(O)c(O)cc3c(=O)oc4c(O)c(O)cc1c4c23 | 71% | 18% | 3% | 77% | 20% | 45% | 49% | 0% | 93% | 80% | – | – | –
O=C(O)C[C@H]1C(=O)O[C@H]2[C@H](OC(=O)c3cc(O)c(O)c(O)c3)[C@@H](OC(=O)c3cc(O)c(O)c4c3[C@H]1[C@H](O)C(=O)O4)[C@H](OC(=O)c1cc(O)c(O)c(O)c1)O[C@@H]2COC(=O)c1cc(O)c(O)c(O)c1 | 75% | 24% | 1% | 71% | 27% | 22% | 46% | 8% | 109% | 67% | – | – | –
O=C1OC[C@H]2OC(O)[C@@H]3OC(=O)c4cc(O)c(O)c(O)c4-c4c(cc(O)c(O)c4O)C(=O)O[C@H]3[C@@H]2OC(=O)c2cc(O)c(O)c(O)c2-c2c1cc(O)c(O)c2O (stereo partly drawn) | 80% | 17% | 10% | 51% | 7% | 15% | 41% | 4% | 88% | 73% | – | – | –
O=C(O)C[C@@H]1C(=O)O[C@H]2[C@@H]3OC(=O)c4cc(O)c(O)c(O)c4-c4c(cc(O)c(O)c4O)C(=O)OC[C@H]2O[C@@H](OC(=O)c2cc(O)c(O)c(O)c2)[C@@H]3OC(=O)c2cc(O)c(O)c3c2[C@H]1[C@H](O)C(=O)O3 | 94% | 31% | 8% | 90% | 68% | 48% | 74% | 6% | 106% | 67% | – | – | –
O=C(O[C@@H]1O[C@@H]2COC(=O)c3cc(Oc4c(C(=O)O[C@@H]5O[C@@H]6COC(=O)c7cc(O)c(O)c(O)c7-c7c(cc(O)c(O)c7O)C(=O)O[C@H]6[C@H](OC(=O)c6cc(O)c(O)c(O)c6)[C@H]5OC(=O)c5cc(O)c(O)c(O)c5)cc(O)c(O)c4O)c(O)c(O)c3-c3c(cc(O)c(O)c3O)C(=O)O[C@H]2[C@H](OC(=O)c2cc(O)c(O)c(O)c2)[C@H]1OC(=O)c1cc(O)c(O)c(O)c1)c1cc(O)c(O)c(O)c1 | 111% | 5% | 2% | 16% | 12% | 7% | 12% | 6% | 55% | 54% | – | – | –
O=C[C@@H]1OC(=O)c2c3c(O)c(O)c(O)c2-c2c(cc(O)c(O)c2O)C(=O)O[C@H]1[C@@H]1OC(=O)c2c(c(O)c(O)c(O)c2-c2c(cc(O)c(O)c2O)C(=O)O[C@H]1COC(=O)c1cc(O)c(O)c(O)c1)O[C@H]1[C@@H]2OC(=O)c4cc(O)c(O)c(O)c4-c4c(cc(O)c(O)c4O)C(=O)O[C@H]2[C@H](OC(=O)c2cc(O)c(O)c(O)c2)O[C@@H]1CO3 | 106% | 5% | 20% | 24% | 14% | 4% | 22% | 3% | 66% | 73% | – | – | –
COc1cc2c[n+](C)c3c4cc5c(cc4ccc3c2cc1OC)OCO5 | 116% | 1% | 2% | 102% | 5% | 11% | 88% | 1% | 85% | 85% | – | – | –
Oc1cc(O)c2c(c1)O[C@H](c1ccc(O)c(O)c1)[C@H](O)[C@H]2c1c(O)cc(O)c2c1O[C@H](c1ccc(O)c(O)c1)[C@H](O)C2 | 85% | 98% | 9% | 116% | 64% | 97% | 80% | 55% | 102% | 93% | – | – | –
O=C[C@H](OC(=O)c1cc(O)c(O)c(O)c1)[C@@H](OC(=O)c1cc(O)c(O)c(O)c1)[C@@H]1OC(=O)c2cc(O)c(O)c(O)c2-c2c(cc(Oc3c(C(=O)O[C@@H](C=O)[C@@H](OC(=O)c4cc(O)c(O)c(O)c4)[C@@H]4OC(=O)c5cc(O)c(O)c(O)c5-c5c(cc(O)c(O)c5O)C(=O)OC[C@H]4O)cc(O)c(O)c3O)c(O)c2O)C(=O)OC[C@H]1O | 105% | 6% | 15% | 19% | 10% | 4% | 22% | 6% | 82% | 76% | – | – | –
O=C(O[C@@H]1O[C@@H]2COC(=O)c3cc(O)c(O)c(O)c3-c3c(cc(O)c(O)c3O)C(=O)O[C@H]2[C@H](OC(=O)c2cc(O)c(O)c(O)c2)[C@H]1OC(=O)c1cc(O)c(O)c(O)c1)c1cc(O)c(O)c(Oc2c(C(=O)O[C@H]3O[C@@H]4COC(=O)c5cc(O)c(O)c(O)c5-c5c(cc(O)c(O)c5O)C(=O)O[C@H]4[C@H](OC(=O)c4cc(O)c(O)c(O)c4)[C@H]3OC(=O)c3cc(O)c(O)c(O)c3)cc(O)c(O)c2O)c1 | 102% | 4% | 1% | 25% | 8% | 11% | 13% | 1% | 73% | 68% | – | – | –
O=C1O[C@H]2[C@@H]3OC(=O)c4cc(O)c(O)c(O)c4-c4c(cc(O)c(O)c4O)C(=O)OC[C@H]2O[C@@H](OC(=O)c2cc(O)c(O)c(O)c2)[C@@H]3OC(=O)c2cc(O)c(O)c3c2[C@@H]2C1=CC(=O)[C@](O)(O3)C2(O)O | 103% | 6% | 12% | 39% | 15% | 12% | 62% | 6% | 89% | 93% | Active | Active | inactive
O=C(O)c1cc(O)c(O)c(O)c1 | 122% | 75% | 98% | 93% | 91% | 75% | 99% | 78% | 84% | 103% | – | – | –
O=C(O[C@@H]1O[C@@H]2COC(=O)c3cc(O)c(O)c(O)c3-c3c(cc(O)c(O)c3O)C(=O)O[C@H]([C@H]1O)[C@@H]2O)c1cc(O)c(O)c(O)c1 | 92% | 25% | 0% | 92% | 30% | 88% | 64% | 3% | 88% | 72% | – | – | –
O=C1O[C@@H]2[C@@H](OC(=O)c3cc(O)c(O)c(O)c3-c3c1cc(O)c(O)c3O)[C@H](O)O[C@@H]1COC(=O)c3cc(O)c(O)c(O)c3-c3c(O)c(O)c4oc(=O)c5c(c(O)c(O)c6oc(=O)c3c4c65)-c3c(cc(O)c(O)c3O)C(=O)O[C@@H]21 | 85% | 11% | 4% | 22% | 9% | 19% | 18% | 2% | 85% | 76% | – | – | –
O=C1OC[C@H]2O[C@@H](O)[C@H](O)[C@@H](O)[C@@H]2OC(=O)c2cc(O)c(O)c(O)c2-c2c(O)c(O)c3oc(=O)c4c(c(O)c(O)c5oc(=O)c2c3c54)-c2c1cc(O)c(O)c2O | 105% | 8% | 6% | 62% | 31% | 35% | 64% | 1% | 119% | 109% | – | – | –
O=C(O[C@H]1O[C@@H]2COC(=O)c3cc(O)c(O)c(O)c3-c3c(cc(O)c(O)c3O)C(=O)O[C@H]2[C@@H]2OC(=O)c3cc(O)c(O)c(O)c3-c3c(cc(O)c(O)c3O)C(=O)O[C@@H]12)c1cc(O)c(O)c(Oc2c(C(=O)O[C@H]3O[C@@H]4COC(=O)c5cc(O)c(O)c(O)c5-c5c(cc(O)c(O)c5O)C(=O)O[C@H]4[C@@H]4OC(=O)c5cc(O)c(O)c(O)c5-c5c(cc(O)c(O)c5O)C(=O)O[C@@H]34)cc(O)c(O)c2O)c1 | 80% | 19% | 6% | 27% | 5% | 20% | 7% | 2% | 86% | 68% | – | – | –
